According to patent publication US9592231B2, “Therapy for complications of diabetes” (AbbVie Deutschland GmbH & Co. KG, priority 2007, dated 2017):
Where two headings read alike, the source gives them in different places.

Experiments:
[1] = biological target: T1, ETA (Homo sapiens, UniProt P25101); assay: ETA affinity reported by Riechers et al (1996); format: binding; conditions: calculated from the Riechers et al (1996) data
T1 sequence (P25101 21-427): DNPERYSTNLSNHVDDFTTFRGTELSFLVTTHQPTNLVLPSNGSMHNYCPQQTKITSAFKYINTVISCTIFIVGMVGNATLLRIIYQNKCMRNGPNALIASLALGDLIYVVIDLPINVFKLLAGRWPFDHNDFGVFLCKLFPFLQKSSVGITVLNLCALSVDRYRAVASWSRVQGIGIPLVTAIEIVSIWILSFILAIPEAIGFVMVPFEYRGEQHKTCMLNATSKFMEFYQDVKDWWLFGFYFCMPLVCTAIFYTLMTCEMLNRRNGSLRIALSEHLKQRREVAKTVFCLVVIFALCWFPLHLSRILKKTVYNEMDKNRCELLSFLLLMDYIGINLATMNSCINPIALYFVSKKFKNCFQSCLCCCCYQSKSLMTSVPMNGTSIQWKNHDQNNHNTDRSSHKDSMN

[2] = test system: hyperglycemic rats; conditions: type 2 diabetes model; cited from earlier work
[3] = test system: rat model of insulin resistance; conditions: rats, 5 mg/kg/day, cited from earlier work
[4] = biological target: T1, ETA; conditions: Lip (2001); cited from earlier work
[5] = test system: moderate hypertension; conditions: patients, 10 to 100 mg/day, by comparison with placebo; cited from earlier work
[6] = test system: resistant hypertension; conditions: Myogen news release Aug. 18, 2005; cited from earlier work
[7] = test system: streptozotocin-induced diabetes in rats; conditions: 100 mg/kg/day; cited from earlier work
[8] = biological target: T1, ETA; assay: 125I-endothelin-1 receptor binding cold ligand competition, steady-state, human myocardial membranes; design: human myocardial membranes prepared from failing and non-failing left ventricles; from tissue; host or cells: human left-ventricular myocardium (failing and non-failing), membrane preparation; conditions: mean of 8 assays
[9] = test system: obese mice; conditions: 50 mg/kg/day; cited from earlier work
[10] = test system: rats with streptozotocin-induced diabetes; conditions: 100 mg/kg/day; cited from earlier work

## COc1cc(OC)nc(OC(C(=O)O)C(OC)(c2ccccc2)c2ccccc2)n1 (racemic) [racemate, 2-(4,6-dimethoxypyrimidin-2-yloxy)-3-methoxy-3,3-diphenylpropionic acid]
[1]
  selectivity Ki(ETB)/Ki(ETA): about 62

## COC(c1ccccc1)(c1ccccc1)[C@H](Oc1nc(C)cc(C)n1)C(=O)O [BSF 208075]
[2]
  plasma glucose levels: reduced

## CCCCN(CCCC)C(=O)CN1C[C@H](c2ccc3c(c2)OCO3)[C@@H](C(=O)O)[C@@H]1c1ccc(OC)cc1 [atrasentan]
[3]; meal tolerance test
  ΔAUC for glucose: significantly reduce
  ΔAUC for glucose-insulin index: significantly reduce
  ΔAUC for insulin: significantly reduce
[3]
  3-hour fasting glucose level: not
  3-hour fasting insulin level: significantly reduce

## COc1cc(OC)nc(O[C@H](C(=O)O)C(OC)(c2ccccc2)c2ccccc2)n1 [darusentan, (+)-(S)-2-[(4,6-dimethoxy-2-pyrimidinyl)oxy]-3-methoxy-3,3-diphenylpropionic acid]
[4]
  selectivity Ki(ETB)/Ki(ETA): about 160
[5]
  DBP: significantly reduce
  SBP: significantly reduce
[6]
  results of clinical trial DAR-201: positive results
[7]
  plasma glucose levels: unaffected
  renal effects of streptozotocin-induced diabetes, including increased glomerular diameter and deposition of eosinophilic material within the glomeruli: partially or fully reversed
[8]
  Ki(ETB)/Ki(ETA): 1181±148
[9]
  increase in body weight: completely prevented
[10]
  glomerular matrix protein deposition: normalized
  serum glucose concentrations: neither compound was found to influence
